From patent US8486996B2, “Aroylfuranes and aroylthiophenes” (Basilea Pharmaceutica AG, priority 2006, dated 2013)
Where two headings read alike, the source gives them in different places.

Assays:
Type in all cases: cell-based
[1] = Hoechst 33342 nuclear staining (48 h read-out)
Description: (§1) A) Hoechst 33342 Nuclear Staining
(§2) This assay is performed in 96 well tissue culture plates. Appropriate number of cells (adherent cells: 3-5*10^3, suspension cells: 8-10*10^3) are being seeded out in 80 μl complete medium. Adherent cells are incubated for 24 h for proper spreading out before addition of test compounds while suspension cells are immediately treated with test compounds after seeding out. The test compounds are added in 20 μl complete medium containing max 5% DMSO. The final compound concentrations in the assays are in the range of 0.001 μM-10 μM. After 24 h or 48 h incubation at culture conditions, 10 μl medium containing Hoechst 33342 dye (Sigma B-2261) at 2-5 μg/ml are added to each well. The assay plates are then further incubated for 30 minutes and subsequently analyzed with a standard inverted fluorescence microscope.
(§3) The readout allows the determination of the fraction of apoptotic nuclei as well as other morphological criteria specific for apoptosis as a function of the treatment. The scores A, B, C and D are explained at the end of the Table.

tumor cells [2] = test: Hoechst 33342 nuclear staining (48 h read-out)
Description: as §1, §2, §3

tumor cells [3] = test: MTS proliferation assay (72 h read-out)
Description: B) MTS Proliferation Assay
The assay is performed in 96 well tissue culture plates. The cells (range: 1.5*10^3-10^4) are seeded out in 80 μl complete medium 24 h prior to compound treatment. The test compounds are added in 20 μl complete medium containing max 5% DMSO. The final compound concentrations in the assays are in the range of 0.001 μM-10 μM. The assay plates are incubated for 72 h at culture conditions. The MTS reagent is prepared according to the manufacturer's protocol (Promega G1111). 20 μl MTS reagent are added to each well; the assay plates are quickly spun and incubated for another 3 h at culture conditions. Subsequently, the plates are shortly shaked and absorption measured with a microplate-reader at 492 nm. The scores A, B, C and D are explained at the end of the Table.

tumor cells [4] = test: Mitochondrial membrane potential, JC-1 (read-out 48 h); conditions: JC-1, 48 h
Description: D) Mitochondrial Membrane Potential
as §2, with “The final compound concentrations in the assays are in the range of 0.001 μM-10 μM.” left out, “JC-1 (Molecular Probes, T-3168)” for “Hoechst 33342 dye (Sigma B-2261)”, “microscope by using the FITC and TRITC filters.” for “microscope.”
The readout allows the determination of the fraction of cells which show a dissipation of the mitochondrial membrane potential strongly indicating an apoptotic cell death as a function of the treatment. The scores A, B, C and D are explained at the end of the Table.

[5] = MRC5 cells, read-out: Hoechst 33342 nuclear staining EC50, MRC5
[6] = HeLa cells, read-out: Hoechst 33342 nuclear staining EC50, HeLa
[7] = Jurkat cells, read-out: Hoechst 33342 nuclear staining EC50, Jurkat
[8] = HT1080 cells, read-out: MTS proliferation assay IC50, HT1080
[9] = HeLa cells, read-out: MTS proliferation assay IC50, HeLa
[10] = Jily cells, read-out: MTS proliferation assay IC50, Jily
[11] = Jurkat cells, read-out: MTS proliferation assay IC50, Jurkat
[12] = HeLa cells, read-out: Mitochondrial membrane potential (read-out 48 h) HeLa
[13] = Jily cells, read-out: Mitochondrial membrane potential (read-out 48 h) Jily
[14] = Jurkat cells, read-out: Mitochondrial membrane potential (read-out 48 h) Jurkat
[15] = MCF7 cells, read-out: Mitochondrial membrane potential (read-out 48 h) MCF7
[16] = Homo sapiens, MRC5 cells, read-out: Hoechst 33342 nuclear staining EC50, MRC5
[17] = Homo sapiens, HeLa cells, read-out: Hoechst 33342 nuclear staining EC50, HeLa
[18] = Homo sapiens, Jurkat cells, read-out: Hoechst 33342 nuclear staining EC50, Jurkat
[19] = Homo sapiens, HT-1080, HT1080 cells, read-out: MTS proliferation assay IC50, HT1080
[20] = Homo sapiens, HeLa cells, read-out: MTS proliferation assay IC50, HeLa
[21] = Homo sapiens, Jurkat cells, read-out: MTS proliferation assay IC50, Jurkat
[22] = Homo sapiens, HeLa cells, read-out: Mitochondrial membrane potential (read-out 48 h) HeLa
[23] = Homo sapiens, Jurkat cells, read-out: Mitochondrial membrane potential (read-out 48 h) Jurkat
[24] = Homo sapiens, MCF7 cells, read-out: Mitochondrial membrane potential (read-out 48 h) MCF7

Structure (SMILES)	EC50 [1, 5] [nM]	EC50 (tumor cells [2]; [6]) [nM]	EC50 (tumor cells [2]; [7]) [nM]	IC50 (tumor cells [3]; [8]) [nM]	IC50 (tumor cells [3]; [9]) [nM]	IC50 (tumor cells [3]; [10]) [nM]	IC50 (tumor cells [3]; [11]) [nM]	EC50 (tumor cells [4]; [12]) [nM]	EC50 (tumor cells [4]; [13]) [nM]	EC50 (tumor cells [4]; [14]) [nM]	EC50 (tumor cells [4]; [15]) [nM]	further results
CCCOc1ccccc1C(=O)c1sc2nc(C)c(C)cc2c1N [Example 133]	10 to 100	10 to 100	10 to 100	10 to 100	10 to 100	10 to 100	10 to 100	10 to 100	10 to 100	10 to 100	> 1000	
Nc1cnc2sc(C(=O)c3cc(F)ccc3N3CCOCC3)c(N)c2c1 [Example 130]	100 to 1000	100 to 1000	100 to 1000	100 to 1000	100 to 1000	10 to 100	10 to 100	100 to 1000	100 to 1000	100 to 1000	> 1000	
CCOc1ccc(F)cc1C(=O)c1sc2ncc(C#N)cc2c1N [Example 120, 5-Cyano-3-amino-2-(2′-ethoxy-5′-fluorobenzoyl)-thieno[2,3-b]pyridine]						100 to 1000			100 to 1000			EC50 [1, 16]: 100 to 1000 nM; EC50 (tumor cells [2]; [17]): > 1000 nM; EC50 (tumor cells [2]; [18]): 100 to 1000 nM; IC50 (tumor cells [3]; [19]): 100 to 1000 nM; IC50 (tumor cells [3]; [20]): 100 to 1000 nM; IC50 (tumor cells [3]; [21]): 100 to 1000 nM; EC50 (tumor cells [4]; [22]): > 1000 nM; EC50 (tumor cells [4]; [23]): 100 to 1000 nM; EC50 (tumor cells [4]; [24]): > 1000 nM
Cc1cc2c(N)c(C(=O)c3cc(F)ccc3N3CCOCC3)sc2nc1C [Example 119, 5,6-Dimethyl-3-amino-2-(2′-N-morpholino-5′-fluorobenzoyl)-thieno[2,3-b]pyridin]						10 to 100			100 to 1000			EC50 [1, 16]: 10 to 100 nM; EC50 (tumor cells [2]; [17]): 100 to 1000 nM; EC50 (tumor cells [2]; [18]): 10 to 100 nM; IC50 (tumor cells [3]; [19]): 10 to 100 nM; IC50 (tumor cells [3]; [20]): 100 to 1000 nM; IC50 (tumor cells [3]; [21]): 10 to 100 nM; EC50 (tumor cells [4]; [22]): > 1000 nM; EC50 (tumor cells [4]; [23]): 100 to 1000 nM; EC50 (tumor cells [4]; [24]): > 1000 nM
CCOc1ccc(F)cc1C(=O)c1sc2nc(C)c(C)cc2c1N [Example 118, 5,6-Dimethyl-3-amino-2-(2′-ethoxy-5′-fluorobenzoyl)-thieno[2,3-b]pyridine]						10 to 100			10 to 100			EC50 [1, 16]: 10 to 100 nM; EC50 (tumor cells [2]; [17]): 10 to 100 nM; EC50 (tumor cells [2]; [18]): 10 to 100 nM; IC50 (tumor cells [3]; [19]): 10 to 100 nM; IC50 (tumor cells [3]; [20]): 10 to 100 nM; IC50 (tumor cells [3]; [21]): 10 to 100 nM; EC50 (tumor cells [4]; [22]): 100 to 1000 nM; EC50 (tumor cells [4]; [23]): 10 to 100 nM; EC50 (tumor cells [4]; [24]): > 1000 nM
Nc1c(C(=O)c2cc(F)ccc2N2CCOCC2)sc2ncc([N+](=O)[O-])cc12 [Example 129]	> 1000	> 1000	> 1000	> 1000	> 1000	> 1000	> 1000	> 1000	> 1000	> 1000	> 1000	
CCCOc1ccc(F)cc1C(=O)c1sc2ncc([N+](=O)[O-])cc2c1N [Example 127]	> 1000	> 1000	> 1000	> 1000	> 1000	> 1000	> 1000	> 1000	> 1000	> 1000	> 1000	
Nc1c(C(=O)c2cc(F)ccc2N2CCCCC2)sc2ncccc12 [Example 124]	> 1000	> 1000	> 1000	> 1000	> 1000	> 1000	> 1000	> 1000	> 1000	> 1000	> 1000	
CCCOc1ccc(F)cc1C(=O)c1sc2ncc(N)cc2c1N [Example 128]	100 to 1000	100 to 1000	100 to 1000	100 to 1000	> 1000	100 to 1000	100 to 1000	> 1000	> 1000	100 to 1000	> 1000	EC50 ([1]; PBL, read-out: Hoechst 33342 nuclear staining EC50, PBL): > 1000 nM
N#Cc1cnc2sc(C(=O)c3cc(F)ccc3N3CCOCC3)c(N)c2c1 [Example 136]	> 1000	> 1000	100 to 1000	100 to 1000	100 to 1000	100 to 1000	100 to 1000	> 1000	100 to 1000	100 to 1000	> 1000	
Cc1cc2c(N)c(C(=O)c3ccccc3N3CCOCC3)sc2nc1C [Example 134]	100 to 1000	100 to 1000	10 to 100	10 to 100	100 to 1000	10 to 100	10 to 100	10 to 100	10 to 100	10 to 100	> 1000	
Nc1c(C(=O)c2ccccc2N2CC=CCC2)sc2ncccc12 [Example 123]	> 1000	> 1000	> 1000	> 1000	> 1000	> 1000	> 1000	> 1000	> 1000	> 1000	> 1000	
Nc1c(C(=O)c2ccccc2N2CCOCC2)sc2ncc([N+](=O)[O-])cc12 [Example 131]	> 1000	> 1000	> 1000	> 1000	> 1000	> 1000	> 1000	> 1000	> 1000	> 1000	> 1000	
Nc1c(C(=O)c2ccccc2N2CCCCC2)sc2ncccc12 [Example 121]	> 1000	> 1000	> 1000	> 1000	> 1000	> 1000	> 1000	> 1000	> 1000	> 1000	> 1000	
Nc1cnc2sc(C(=O)c3ccccc3N3CCOCC3)c(N)c2c1 [Example 132]	> 1000	> 1000	100 to 1000	> 1000	> 1000	100 to 1000	100 to 1000	> 1000	> 1000	> 1000	> 1000	
Nc1c(C(=O)c2cc(F)ccc2N2CC=CCC2)sc2ncccc12 [Example 126]	> 1000	> 1000	> 1000	100 to 1000	> 1000	100 to 1000	100 to 1000	> 1000	100 to 1000	100 to 1000	> 1000	
Nc1c(C(=O)c2ccccc2N2CCOCC2)sc2ncccc12 [Example 122]	> 1000	> 1000	> 1000	> 1000	> 1000	> 1000	> 1000	> 1000	> 1000	> 1000	> 1000	
Cc1cc2c(N)c(C(=O)c3ccccc3N3CC=CCC3)sc2nc1C [Example 135]	100 to 1000	100 to 1000	10 to 100	10 to 100	100 to 1000	10 to 100	10 to 100	> 1000	10 to 100	10 to 100	> 1000	
